Entries after “also recorded” stand apart in the source; their conditions may differ.
Legend:
[1] = tested on: gene encoding carbonic anhydrase IX; experiment: Transcriptomic analysis (RT-qPCR) of the carbonic anhydrase IX gene in hair bulbs cultured ex vivo; type: cell-based, human; conditions: whole hair bulbs, 4 hours incubation, normoxic conditions (21% dioxygen), compared with hypoxic conditions (3% dioxygen)
Description: A second evaluation process may consist in carrying out a transcriptomic analysis of carbonic anhydrase IX, of which the expression of the corresponding gene is modified by a hypoxic signal, using the RT-qPCR technique, on keratin materials, for example on in vitro cultures of keratinocytes or hair bulbs isolated by microdissection and placed in culture ex vivo, under hypoxic conditions, and under normoxic conditions in the presence or absence of said active agent(s) to be tested, in order to study whether the active agent(s) is (are) capable of mimicking a hypoxic state.
This second process consists in carrying out a transcriptomic analysis of the gene encoding carbonic anhydrase IX, the expression of which is modified by a hypoxic signal, using the RT-qPCR technique, on hair bulbs isolated by microdissection at the level of the human scalp hypodermis and placed in culture ex vivo for 4 hours either under hypoxic conditions (3% dioxygen) or at 21% dioxygen, in the absence (control) or in the presence of diethyl pyridine-2,4 dicarboxylate.

HIF1-alpha protein = experiment: Western blotting of the level of expression/stabilization of the HIF1-alpha protein in outer sheath keratinocytes; type: cell-based, human; conditions: keratinocyte cultures under normoxic conditions (21% oxygen)
Description: This third example consists in carrying out an analysis of the level of expression/stabilization of the HIF1-alpha protein using the Western blotting technique as a basis. To summarise, under normoxic conditions, the HIF1-alpha protein is hydroxylated on a proline residue (reaction catalyzed by a prolyl hydroxylase), ubiquitinylated and then degraded by the proteasome. Under hypoxic conditions, the HIF1-alpha protein is not hydroxylated and its expression level is maintained. To characterize the effect of diethyl pyridine-2,4-dicarboxylate on the level of expression/stabilization of HIF1-alpha, a protein extract was prepared on cultures of keratinocytes derived from the outer sheath of human hair follicles maintained and placed in culture under hypoxic conditions or under normoxic conditions, in the absence or presence of diethyl pyridine-2,4-dicarboxylate. […] In this regard, it may be stated that the effect of diethyl pyridine-2,4-dicarboxylate under normoxic conditions mimics the effect of hypoxic conditions on the expression/stabilization of the HIF1-alpha protein.

[2] = tested on: keratinocytes from the outer sheath of human hair follicles; experiment: CFE (Colony-forming efficiency) test for keratinocytes (including epithelial stem cells); type: cell-based; conditions: 21% dioxygen, 50 to 500 μM, 10 days culture
Description: It is possible to optionally add to these two evaluation processes a process aimed at establishing the impact of the active agent(s) capable of mimicking hypoxia on the quality of the epithelial stem cells. To do this, a CFE (Colony-forming efficiency) test can be carried out for keratinocytes (including epithelial stem cells), consisting in observing, respectively, under hypoxic conditions and under normoxic conditions in the presence or absence of active agent(s), the impact of the presence of the active agent(s) on the frequency of the cells capable of generating a cell clone within a given population, and also on the clonal morphology obtained, so as to thus establish their participation in the preservation of the functionality of the epithelial stem cells treated with the active agent(s). […]
Next, the cells of the outer epithelial sheath thus extracted from the hair follicles and dissected are subsequently seeded in a proportion of 1000 cells/culture dish under CFE conditions, on a layer of irradiated 3T3 fibroblasts. […] At the end of the clonogenic culture and after fixing (via 70% ethanol) and staining (incubation with eosin, rinsing and then incubation with BlueRAL 555) of the cell clones obtained, the morphology of the clones and of the cells making up these clones is analyzed.

CCOC(=O)c1ccnc(C(=O)OCC)c1 [diethyl pyridine-2,4-dicarboxylate]
expression of carbonic anhydrase 9 (molecular profile) [1]: induces a molecular profile similar to that induced by hypoxia
level of expression/stabilization of the HIF1-alpha protein (HIF1-alpha protein): induces an increase in the amount of protein detected
number of clones ([2]; vs 21% dioxygen control conditions): does not significantly decrease
clonal morphology ([2]; vs untreated 21% dioxygen control): less diffuse and less dense than the controls; also recorded: generates clones similar to those obtained under hypoxic conditions
